O=S(=O)(c1ccccc1)N(F)S(=O)(=O)c1ccccc1
Settings	solubility (mole fraction)
in 2-butanone, 273.35 K	0.0332
in 2-butanone, 278.35 K	0.0396
in 2-butanone, 283.35 K	0.047
in 2-butanone, 288.35 K	0.0546
in 2-butanone, 292.85 K	0.0637
in 2-butanone, 297.95 K	0.0734
in 2-butanone, 302.65 K	0.0852
in 2-butanone, 307.35 K	0.0978
in 2-butanone, 312.55 K	0.111
in 2-butanone, 316.95 K	0.128
in 2-butanone, 322.85 K	0.146
in 2-pentanone, 273.35 K	0.0316
in 2-pentanone, 278.35 K	0.038
in 2-pentanone, 283.35 K	0.0455
in 2-pentanone, 288.35 K	0.0534
in 2-pentanone, 292.85 K	0.0628
in 2-pentanone, 297.95 K	0.073
in 2-pentanone, 302.65 K	0.0853
in 2-pentanone, 307.35 K	0.0988
in 2-pentanone, 312.55 K	0.113
in 2-pentanone, 316.95 K	0.131
in 2-pentanone, 322.85 K	0.151
in acetone, 273.35 K	0.0309
in acetone, 278.35 K	0.0376
in acetone, 283.35 K	0.0455
in acetone, 288.35 K	0.0539
in acetone, 292.85 K	0.0639
in acetone, 297.95 K	0.0749
in acetone, 302.65 K	0.0885
in acetone, 307.35 K	0.104
in acetone, 312.55 K	0.119
in acetone, 316.95 K	0.14
in acetone, 322.85 K	0.162
in acetonitrile, 273.35 K	0.00951
in acetonitrile, 278.35 K	0.0126
in acetonitrile, 283.35 K	0.0165
in acetonitrile, 288.35 K	0.021
in acetonitrile, 292.85 K	0.0267
in acetonitrile, 297.95 K	0.0334
in acetonitrile, 302.65 K	0.0422
in acetonitrile, 307.35 K	0.0528
in acetonitrile, 312.55 K	0.0645
in acetonitrile, 316.95 K	0.0804
in acetonitrile, 322.85 K	0.0996
in ethanol, 273.35 K	0.000599
in ethanol, 278.35 K	0.000791
in ethanol, 283.35 K	0.00103
in ethanol, 288.35 K	0.00134
in ethanol, 292.85 K	0.00168
in ethanol, 297.95 K	0.00214
in ethanol, 302.65 K	0.00268
in ethanol, 307.35 K	0.00331
in ethanol, 312.55 K	0.00417
in ethanol, 316.95 K	0.00503
in ethanol, 322.85 K	0.00641
in ethyl acetate, 273.35 K	0.0243
in ethyl acetate, 278.35 K	0.0295
in ethyl acetate, 283.35 K	0.0353
in ethyl acetate, 288.35 K	0.0415
in ethyl acetate, 292.85 K	0.0489
in ethyl acetate, 297.95 K	0.0568
in ethyl acetate, 302.65 K	0.0668
in ethyl acetate, 307.35 K	0.0775
in ethyl acetate, 312.55 K	0.0885
in ethyl acetate, 316.95 K	0.103
in ethyl acetate, 322.85 K	0.119
in ethyl formate, 273.35 K	0.0206
in ethyl formate, 278.35 K	0.0254
in ethyl formate, 283.35 K	0.0309
in ethyl formate, 288.35 K	0.0369
in ethyl formate, 292.85 K	0.0441
in ethyl formate, 297.95 K	0.052
in ethyl formate, 302.65 K	0.0619
in ethyl formate, 307.35 K	0.0728
in ethyl formate, 312.55 K	0.0843
in ethyl formate, 316.95 K	0.0992
in ethyl formate, 322.85 K	0.116
in isobutanol, 273.35 K	0.000182
in isobutanol, 278.35 K	0.000265
in isobutanol, 283.35 K	0.000382
in isobutanol, 288.35 K	0.000545
in isobutanol, 292.85 K	0.000744
in isobutanol, 297.95 K	0.00104
in isobutanol, 302.65 K	0.00141
in isobutanol, 307.35 K	0.00188
in isobutanol, 312.55 K	0.00258
in isobutanol, 316.95 K	0.00332
in isobutanol, 322.85 K	0.00467
in isopentanol, 273.35 K	0.000312
in isopentanol, 278.35 K	0.000432
in isopentanol, 283.35 K	0.000594
in isopentanol, 288.35 K	0.000812
in isopentanol, 292.85 K	0.00106
in isopentanol, 297.95 K	0.00142
in isopentanol, 302.65 K	0.00184
in isopentanol, 307.35 K	0.00238
in isopentanol, 312.55 K	0.00312
in isopentanol, 316.95 K	0.00389
in isopentanol, 322.85 K	0.00519
in isopropanol, 273.35 K	0.000584
in isopropanol, 278.35 K	0.000798
in isopropanol, 283.35 K	0.000929
in isopropanol, 288.35 K	0.00121
in isopropanol, 292.85 K	0.0015
in isopropanol, 297.95 K	0.00186
in isopropanol, 302.65 K	0.00226
in isopropanol, 307.35 K	0.00275
in isopropanol, 312.55 K	0.00346
in isopropanol, 316.95 K	0.0041
in isopropanol, 322.85 K	0.00495
in methanol, 273.35 K	0.000611
in methanol, 278.35 K	0.000792
in methanol, 283.35 K	0.00102
in methanol, 288.35 K	0.0013
in methanol, 292.85 K	0.0016
in methanol, 297.95 K	0.00201
in methanol, 302.65 K	0.00248
in methanol, 307.35 K	0.00302
in methanol, 312.55 K	0.00374
in methanol, 316.95 K	0.00445
in methanol, 322.85 K	0.0056
in methyl acetate, 273.35 K	0.0285
in methyl acetate, 278.35 K	0.0346
in methyl acetate, 283.35 K	0.0417
in methyl acetate, 288.35 K	0.0492
in methyl acetate, 292.85 K	0.0583
in methyl acetate, 297.95 K	0.0681
in methyl acetate, 302.65 K	0.0803
in methyl acetate, 307.35 K	0.0934
in methyl acetate, 312.55 K	0.107
in methyl acetate, 316.95 K	0.126
in methyl acetate, 322.85 K	0.145
in n-butanol, 273.35 K	0.00053
in n-butanol, 278.35 K	0.000696
in n-butanol, 283.35 K	0.000909
in n-butanol, 288.35 K	0.00117
in n-butanol, 292.85 K	0.00147
in n-butanol, 297.95 K	0.00187
in n-butanol, 302.65 K	0.00233
in n-butanol, 307.35 K	0.00287
in n-butanol, 312.55 K	0.0036
in n-butanol, 316.95 K	0.00433
in n-butanol, 322.85 K	0.00551
in n-pentanol, 273.35 K	0.000465
in n-pentanol, 278.35 K	0.000632
in n-pentanol, 283.35 K	0.000843
in n-pentanol, 288.35 K	0.00112
in n-pentanol, 292.85 K	0.00142
in n-pentanol, 297.95 K	0.00186
in n-pentanol, 302.65 K	0.00236
in n-pentanol, 307.35 K	0.00298
in n-pentanol, 312.55 K	0.00382
in n-pentanol, 316.95 K	0.0047
in n-pentanol, 322.85 K	0.00613
in n-propanol, 273.35 K	0.000452
in n-propanol, 278.35 K	0.000616
in n-propanol, 283.35 K	0.000832
in n-propanol, 288.35 K	0.00111
in n-propanol, 292.85 K	0.00142
in n-propanol, 297.95 K	0.00187
in n-propanol, 302.65 K	0.00239
in n-propanol, 307.35 K	0.00304
in n-propanol, 312.55 K	0.00392
in n-propanol, 316.95 K	0.00485
in n-propanol, 322.85 K	0.00633
in toluene, 273.35 K	0.0112
in toluene, 278.35 K	0.0145
in toluene, 283.35 K	0.0185
in toluene, 288.35 K	0.0228
in toluene, 292.85 K	0.0284
in toluene, 297.95 K	0.0346
in toluene, 302.65 K	0.0429
in toluene, 307.35 K	0.052
in toluene, 312.55 K	0.0623
in toluene, 316.95 K	0.076
in toluene, 322.85 K	0.092

From BigSolDB 2.1
